Results as given in patent US10758522B2, “Small molecule analogs of the nemo binding peptide” (THE SCRIPPS RESEARCH INSTITUTE, priority 2015, dated 2020).

Experiments:
mdx mice = assay: Chronic treatment of mdx mice (Duchenne muscular dystrophy model); format: in vivo, mouse; conditions: for tibialis anterior muscle pathology (H&E): SR compounds 30 mg/kg, 8K-NBD 10 mg/kg
Excerpt: Mdx mice develop normally at birth, and then undergo a massive myonecrosis starting at three weeks. Treatment of mdx mice with IKK/NF-kB inhibitors effectively reduces inflammation, block necrosis and increase muscle regeneration. Mdx mice were chronically treated with vehicle, SR12343, SR12460 or 8K-NBD starting from day 21, 3 times/week for 4 weeks. […] To determine if SR12343 and SR12460 improve muscle pathology, tibialis anterior (TA) muscle was stained with hematoxylin and eosin (H&E) to assess inflammatory infiltration, necrosis, central nucleation and fibrosis. […] Fiber size in centrally nucleated and non-centrally nucleated myofibers was also smaller in mice treated with SR12343 and 8K-NBD, indicating active reconstruction of myofiber during the regenerative phase.
To determine muscle strength post-treatment, grip strength test on forelimbs was performed 2 weeks and 4 weeks post-treatment.
HEK293 cells were grown in Dulbecco's Modification of Eagles Medium (with 4.5 g/L glucose and L-glutamine), supplemented with 10% fetal bovine serum, penicillin and streptomycin. Raw264.7 cells were cultured in RPMI-1640 media containing 10% heat-inactivated fetal bovine serum, penicillin and streptomycin. C57BL/10ScSn-Dmd^mdx/J and female C57BL/6 mice were purchased from the Jackson Laboratory. Mice were housed in the animal facilities of Scripps Fla. under constant temperature and humidity. Animal protocols used in this study were approved by Scripps Fla. Institutional Animal Care and Use Committees. Three week-old sex-matched mdx mice were dosed with SR12343 (30 mg/kg), […] (30 mg/kg), 8K-NBD peptide (10 mg/kg) or vehicle by intraperitoneal (i.p.) injection 3 times per week for 4 weeks. Mice were sacrificed at 7 weeks of age by carbon dioxide inhalation and tibialis anterior was collected for histological analysis.
Seven week-old treated or untreated mdx mice were measured for forelimb grip strength using a digital grip strength meter paired with a metal grid (Bioseb). Mice were allowed to grip the metal grid tightly and readings were obtained by gently pulling the tail backward until release. Five sequential measurements were performed and the average force was calculated.
Tissues fixed in 10% neutral buffered formalin (NBF) overnight were imbedded in paraffin. Tissue was sectioned at […] using a microtome. H&E staining was conducted following a standard protocol (REF).

NF-κB target genes [1] = assay: LPS-induced systemic endotoxemia / acute lung inflammation, qRT-PCR of NF-κB target genes; format: in vivo, mice; conditions: 10 mg/kg
Experimental: SR12343 and SR12460 initially were tested in an acute model of LPS-induced systemic endotoxemia to determine their NF-κB inhibitory effects in vivo. C57BL/6J mice were pretreated with vehicle control, 8K-NBD peptide or NBD mimetics at 10 mg/kg for 30 min, followed by LPS induction at 10 mg/kg. Lung and liver were harvested 2-4 hr post-treatment for qRT-PCR analysis of NF-κB target genes.
LPS (strain O111:B4) was prepared in PBS at a sub-lethal dose of 10 mg/kg. 8-10 weeks old female WT mice (20-30 g) were dosed i.p. with vehicle, NBD peptide (10 mg/kg) or small molecules (10 mg/kg) for 30 min and followed by i.p. injection of saline (1 ml/kg) or LPS (10 mg/kg). Mice were euthanized 2-4 hr post-treatment and lung was collected for further analysis.
(§1) Snap frozen tissues were preserved in RNAlater RNA stabilization solution (ThermoFisher) before processed. Total RNA was extracted from cells or tissues using TRIZOL reagent (Life Technologies) and 1500 ng of messenger RNA (mRNA) was subjected to synthesize complementary DNA (cDNA) using SuperScript VILO cDNA synthesis kit. qRT-PCR was performed in a StepOnePlus Real-Time PCR system using Platinum SYBR Green qPCR SuperMix-UDG (ThermoFisher). Target gene expression was calculated using the comparative CT method (ΔΔCT) and normalized to an internal control gene Actb (β-actin). Primers used are as follows: Ptgs2 (COX-2) forward: […]; Ptgs2 (COX-2) reverse: […]; Nfkbia (IκBα) forward: […]; Nfkbia (IκBα) reverse: […]; Il1b (IL-1β) forward: […]; Il1b (IL-1β) reverse: […]; Nos2 (iNOS) forward: […]; Nos2 (iNOS) reverse: […]; Tnf (TNF) forward: […]; Tnf (TNF) reverse: […]; Il6 (IL-6) forward: […]; Il6 (IL-6) reverse: […]. Actb (β-actin) forward: […]; Actb (β-actin) reverse: […];

NF-κB target genes [2] = assay: qRT-PCR of NF-κB target genes in LPS-stimulated Raw 264.7 cells; format: cell-based, mouse; conditions: Raw 264.7, 1 ug/ml LPS 2 hr; mimetics 50 μM, IKKi VII 2 μM, 8K-NBD 400 μM
Experimental: Effect of the NBD mimetics on expression of NF-kB regulated genes in the Raw mouse macrophage cell line. Treatment of the Raw cells with the indicated drugs prior to addition of LPS reduced NF-kB-mediated gene expression as measured by RT-PCR.
To determine whether the inhibitory effect of the mimetics is TNF-α-dependent, LPS-mediated NF-κB activation via TLR4 was examined to determine a broader inhibitory effect of the novel NBD mimetics. NF-κB was stimulated in Raw 264.7 by 1 ug/ml of LPS for 2 hr and genes transcriptionally regulated by NF-κB were determined by qRT-PCR analysis. Both an IKK active site inhibitor IKKi VII (2 μM) and the 8K-NBD peptide (400 μM) were included as positive controls and the expression of COX2, IL-6, IL-1β, TNF-α, IκBα and iNOS were assessed.
Raw 264.7 cells were treated with a 50 μM solution of the SR compound for 30 minutes, and then the mRNA was harvested 2 hours after addition of 1 μg/mL LPS.
as §1

IL-6 = IL-6 ELISA in LPS-stimulated Raw 264.7 cells; format: cell-based, mouse; conditions: Raw 264.7, 1 ug/ml LPS, supernatant at 24 hr
Experimental: To confirm the qRT-PCR result, LPS-mediated IL-6 production was analyzed in Raw 264.7 cells by ELISA. […] Moreover, SR11481 appears to work more efficiently at a lower concentration around 25 μM. Taken together, four lead compounds were identified through seven rounds of optimization and modification.
Enzyme-Linked Immunosorbent Assay (ELISA). Raw264.7 cells were grown in a 96-well plate and pretreated with vehicle, IKKi VII (2 uM) and small molecules (at indicated concentration) for 1 hr, followed by the stimulation with 1 ug/ml of LPS. Supernatant was collected 24 hr later for ELISA analysis. IL-6 concentration was measured using a mouse IL-6 ELISA kit (BD) according to the manufacturer's instructions.

| SMILES | therapeutic benefit of chronic treatment of mdx mice (mdx mice; chronic treatment with the ZINC compounds) | NF-κB target gene expression in lung (iNOS, IκBα, COX2, IL-6) (NF-κB target genes [1]; 30 min before LPS 10 mg/kg, 2-4 hr) | NF-κB target gene expression in liver (NF-κB target genes [1]; LPS 10 mg/kg) | TNF-α expression in lung (NF-κB target genes [1]; LPS 10 mg/kg) | forelimb grip strength (mdx mice; 2 weeks post-treatment) | expression of eMyHC and Pax 7 in TA muscle (qRT-PCR) (mdx mice; ip 3 times/week for 4 weeks) | fiber size in centrally nucleated and non-centrally nucleated myofibers (mdx mice; ip 3 times/week for 4 weeks) | tibialis anterior muscle pathology (H&E) (mdx mice; ip 3 times/week for 4 weeks) | transcription of NF-κB target genes (COX2, IL-6, IL-1β, TNF-α, IκBα, iNOS) (NF-κB target genes [2]) | LPS-mediated mIL-6 production (ELISA) (IL-6) | inhibition of NF-κB/IKK in liver and lung (NF-κB target genes [1]; LPS 10 mg/kg) |
| --- | --- | --- | --- | --- | --- | --- | --- | --- | --- | --- | --- |
| Nc1ncccc1C(=O)OCC(=O)Nc1ccc(Cl)cc1F [NBDA-1, 2-((4-chloro-2-fluorophenyl)amino)-2-oxoethyl 2-aminonicotinate] | showed no therapeutic benefit |  |  |  |  |  |  |  |  |  |  |
| O=C(CNc1ccc(Cl)cn1)NCCc1cccc(Br)c1 [SR12343, N-(3-bromophenethyl)-2-((5-chloropyridin-2-yl)amino)acetamide] |  | downregulate NF-κB transcriptional activity significantly in lung | inhibiting only COX2 expression significantly | unchanged | significantly improved forelimb strength after 2 weeks of treatment | increasing expression of eMyHC as well as Pax 7 | smaller | most significant pathological improvement | significant inhibition on COX2, IL-6 and iNOS expression | suppressed mIL-6 production in a dose-dependent manner |  |
| O=C(CNCCc1cc(F)cc(F)c1)Nc1ccc(Cl)cn1 [SR12460, N-(5-chloropyridin-2-yl)-2-((3,5-difluorophenethyl)amino)acetamide] |  |  |  |  |  | increased eMyHC expression, but to a lower extent compared to SR12343 |  | partly improved muscle pathology | significantly downregulate the transcription of all NF-κB target genes tested | decreasing by half at 25 μM | less potent compared to SR12343 |
